Columns and labels:
[1] = test system: adult Schistosoma mansoni worms; test: Worm killing of cultured adult worms, monitored over 144 hrs; assay type: cell-based; settings: at the concentrations tested (10 and 50 µM)
[2] = test system: adult Schistosoma mansoni worms; test: Worm contraction of cultured adult worms; assay type: cell-based; settings: after overnight culture with compound, 10 and 50 µM
[3] = test system: all stages of S. mansoni; settings: ref [14],[20]; cited from earlier work
[4] = test system: cultured adult S. japonicum worms; settings: ref [14],[20]; cited from earlier work
[5] = test system: cultured adult S. haematobium worms; settings: ref [14],[20]; cited from earlier work

SMILES: O=C(C1CCCCC1)N1CC(=O)N2CCc3ccccc3C2C1 (centres unmarked) [PZQ, 2-(cyclohexylcarbonyl)-1,2,3,6,7,11b-hexahydro-4H-pyrazino[2,1-a]isoquinolin-4-one]
- Time at which worms begin to die after compound is removed from culture media [1]: 4 to 5 days
- Time for worms to return to normal length [2]: > 2 days

SMILES: N#Cc1c(-c2ccccc2)no[n+]1[O-] [Compound 2, 4-phenylfuroxan-3-carbonitrile]
- Activity against all stages of S. mansoni [3]: active
- Activity against cultured adult S. japonicum worms [4]: active
- Activity against cultured adult S. haematobium worms [5]: active

Source: PMC4160910 (European journal of medicinal chemistry, 2014)
